Laboratory results published in article PMC5219620 (International Journal for Parasitology: Drugs and Drug …, 2016).

System: L6 cells
Assay: AlamarBlue in vitro compound toxicity in L6 cells
Format: cell-based, rat
Conditions: upper bound of TI over T. copemani G1, G2 and T. cruzi

Compound | Therapeutic index (TI), in general over all trypanosomes tested
Nc1nc(N)nc(Nc2ccc([As]3SCC(CO)S3)cc2)n1 (centres unmarked) [Melarsoprol, (2-(4-(4,6-diamino-1,3,5-triazin-2-ylamino)phenyl)-1,3,2-dithiarsolan-4-yl)methanol] | < 12.1
CCCCCCCCCCCCCCCCOP(=O)([O-])OCC[N+](C)(C)C [Miltefosine, hexadecylphosphocholine] | < 2.4
